Paper PMC2746281 (PLoS ONE, 2009)

Columns and labels:
VEGFR2 = VEGFR2 (Homo sapiens, UniProt P35968); assay: Recombinant kinase ELISA assay, VEGFR2; format: biochemical; settings: recombinant human enzyme; ELISA-based assay, poly(Glu,Tyr 4:1) substrate
Description: (§1) Full details for the generation of recombinant human KIT intracellular domain and other protein kinases (including Lyn, platelet derived growth factor receptor β, epidermal growth factor receptor, fibroblast growth factor receptor 1, Src, HCK, PYK, FES, Btk, Bmx, c-Ret, c-Fms, Syk, and c-Met) are provided in the Supplemental Methods (see Supporting Information; Methods S1). Experiments on ABL1, Akt1, protein kinase C-α, insulin-like growth factor receptor 1, and Pim1 were carried out by Proqinase (Germany). All other recombinant protein kinases were performed in-house using an enzyme-linked immunoassay; experimental details are provided in the Supplemental Methods (see Supporting Information; Methods S1).

Lyn B = biological target: T1, Lyn B (Homo sapiens, UniProt P07948); assay: Recombinant kinase ELISA assay, Lyn B; format: biochemical; settings: recombinant human enzyme; ELISA-based assay, poly(Glu,Tyr 4:1) substrate
T1 construct: Lyn B (2–583; BC059394); 6xHN (N); made in house; host or cells: baculovirus, Sf9 insect cells
Description: as §1

Src = biological target: T2, Src (Homo sapiens, UniProt P12931); assay: Recombinant kinase ELISA assay, Src; format: biochemical; settings: recombinant human enzyme; ELISA-based assay, poly(Glu,Tyr 4:1) substrate
T2 construct: Src (2–536; BC011566); 6xHN (N); made in house; host or cells: baculovirus, Sf9 insect cells
T2 sequence (P12931 2-536): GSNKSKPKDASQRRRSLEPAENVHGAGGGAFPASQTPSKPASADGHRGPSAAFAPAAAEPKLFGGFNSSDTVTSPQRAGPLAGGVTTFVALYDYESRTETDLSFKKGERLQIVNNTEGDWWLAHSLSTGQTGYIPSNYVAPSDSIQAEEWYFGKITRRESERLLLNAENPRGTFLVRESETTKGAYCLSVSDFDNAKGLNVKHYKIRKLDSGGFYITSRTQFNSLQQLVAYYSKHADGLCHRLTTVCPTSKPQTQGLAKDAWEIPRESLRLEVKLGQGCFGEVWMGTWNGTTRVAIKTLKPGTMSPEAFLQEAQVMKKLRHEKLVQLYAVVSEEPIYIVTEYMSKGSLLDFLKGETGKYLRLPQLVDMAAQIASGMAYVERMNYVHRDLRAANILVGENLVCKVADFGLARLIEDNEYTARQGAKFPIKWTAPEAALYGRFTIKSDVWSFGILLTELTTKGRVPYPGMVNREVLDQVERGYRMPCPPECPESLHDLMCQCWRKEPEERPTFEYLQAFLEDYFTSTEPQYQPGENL
Description: as §1
(§2) A 96-well microtitre plate (Immulon 2HB; ThermoLifeScience, Finland) was coated overnight with 0.25 mg/ml poly(Glu,Tyr 4:1), rinsed twice with 250 µl of washing buffer (10 mM phosphate-buffered saline [pH 7.4] and 0.05% Tween 20) and dried for 2 hours at room temperature. […] Reactions were initiated upon introduction of the enzyme and terminated with the addition of one reaction volume (50 μl) of 100 mM EDTA per 5 M urea mix. […] The final reaction product was quantified by spectrophotometry at 450 nm.

Fes = biological target: T3, Fes (Homo sapiens, UniProt P07332); assay: Recombinant kinase ELISA assay, Fes; format: biochemical; settings: recombinant human enzyme; ELISA-based assay, poly(Glu,Tyr 4:1) substrate
T3 construct: Fes (2-822; BC035357); 6xHN (N); made in house; host or cells: baculovirus, Sf9 insect cells
T3 sequence (P07332 2-822): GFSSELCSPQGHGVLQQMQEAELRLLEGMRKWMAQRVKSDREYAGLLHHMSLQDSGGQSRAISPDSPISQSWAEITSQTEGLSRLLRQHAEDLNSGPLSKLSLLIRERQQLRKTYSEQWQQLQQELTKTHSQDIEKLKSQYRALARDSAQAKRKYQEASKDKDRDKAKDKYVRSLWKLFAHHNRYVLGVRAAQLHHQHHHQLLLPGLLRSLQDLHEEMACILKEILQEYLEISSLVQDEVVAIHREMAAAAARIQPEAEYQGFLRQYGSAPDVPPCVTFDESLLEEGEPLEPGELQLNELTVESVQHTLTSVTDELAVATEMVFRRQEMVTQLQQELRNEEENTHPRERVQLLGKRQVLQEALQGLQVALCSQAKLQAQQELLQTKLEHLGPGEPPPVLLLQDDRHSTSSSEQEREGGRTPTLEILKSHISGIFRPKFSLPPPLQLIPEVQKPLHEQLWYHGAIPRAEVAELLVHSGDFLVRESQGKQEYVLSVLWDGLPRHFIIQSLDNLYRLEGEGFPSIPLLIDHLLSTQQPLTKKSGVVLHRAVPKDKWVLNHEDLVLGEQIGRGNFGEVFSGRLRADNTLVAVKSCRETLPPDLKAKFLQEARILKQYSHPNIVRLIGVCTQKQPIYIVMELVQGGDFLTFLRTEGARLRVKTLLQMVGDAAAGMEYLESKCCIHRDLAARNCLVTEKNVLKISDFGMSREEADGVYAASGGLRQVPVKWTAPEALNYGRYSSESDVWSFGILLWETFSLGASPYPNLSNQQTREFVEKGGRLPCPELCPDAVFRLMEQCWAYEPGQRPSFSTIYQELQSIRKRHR
Description: as §1
(§3) The sequences encoding PDGF receptor β (residues 554–1106; GenBank accession no. BC032224), Lyn B (2–583; accession no. BC059394), fibroblast growth factor receptor 1 (572–959; accession no. BC018128), Src (2–536; accession no. BC011566), Btk (2–659; accession no. BC109079), Bmx (2–675; accession no. BC016652), c-Ret (713–1114; accession no. BC004257), c-Fms (538–972; BC047531), Syk (2–612; BC011399), Hck (2-526; accession no. BC014435), Fes (2-822; accession no. BC035357), PYK2 (2-1006; accession no. BC042599) and c-Met (949–1398; accession no. lifeseq3489592) were amplified by PCR from IMAGE cDNA clones purchased from Openbiosystems. […]

Jak3 = biological target: T4, Jak3 (Homo sapiens, UniProt P52333); assay: Ba/F3 cell proliferation (WST-1), Jak3; settings: Ba/F3 cells expressing the enzyme, read-out: Cell-based assay IC50, Jak3
T4 construct: expressed in transfected cells; host or cells: Ba/F3
T4 sequence (P52333 whole entry, species assumed): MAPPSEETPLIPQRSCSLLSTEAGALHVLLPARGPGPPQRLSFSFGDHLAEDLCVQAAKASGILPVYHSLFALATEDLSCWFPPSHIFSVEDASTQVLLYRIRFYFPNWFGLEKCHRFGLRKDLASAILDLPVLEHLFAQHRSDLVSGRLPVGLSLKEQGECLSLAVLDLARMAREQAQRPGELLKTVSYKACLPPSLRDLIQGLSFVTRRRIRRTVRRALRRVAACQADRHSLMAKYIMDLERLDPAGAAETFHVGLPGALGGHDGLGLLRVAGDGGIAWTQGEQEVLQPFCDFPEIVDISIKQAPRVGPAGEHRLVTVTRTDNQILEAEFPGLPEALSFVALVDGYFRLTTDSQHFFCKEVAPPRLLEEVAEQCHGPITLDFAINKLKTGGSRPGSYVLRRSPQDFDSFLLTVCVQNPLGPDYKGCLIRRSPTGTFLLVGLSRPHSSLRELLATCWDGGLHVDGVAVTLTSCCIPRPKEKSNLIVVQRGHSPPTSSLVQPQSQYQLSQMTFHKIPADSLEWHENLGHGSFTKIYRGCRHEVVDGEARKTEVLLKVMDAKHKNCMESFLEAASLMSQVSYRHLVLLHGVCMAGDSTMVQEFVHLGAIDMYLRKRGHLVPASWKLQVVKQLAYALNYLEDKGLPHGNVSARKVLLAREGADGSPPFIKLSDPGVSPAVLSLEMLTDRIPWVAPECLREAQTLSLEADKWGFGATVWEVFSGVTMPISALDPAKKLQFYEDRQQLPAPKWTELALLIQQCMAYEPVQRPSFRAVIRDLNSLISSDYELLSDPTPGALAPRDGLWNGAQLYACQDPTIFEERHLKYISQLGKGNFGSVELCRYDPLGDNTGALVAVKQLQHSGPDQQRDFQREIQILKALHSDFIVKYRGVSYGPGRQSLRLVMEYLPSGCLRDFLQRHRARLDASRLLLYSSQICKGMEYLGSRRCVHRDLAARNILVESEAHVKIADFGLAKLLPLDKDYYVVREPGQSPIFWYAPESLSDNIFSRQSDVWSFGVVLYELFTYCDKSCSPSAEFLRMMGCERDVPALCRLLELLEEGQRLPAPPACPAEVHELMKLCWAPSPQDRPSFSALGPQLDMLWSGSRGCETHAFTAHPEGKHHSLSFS

Ba/F3 cells = assay: IL-3-stimulated proliferation of Ba/F3 cells expressing human wild-type KIT; format: cell-based; settings: Mus musculus, BaF3, read-out: IC50 for inhibition of IL-3-stimulated proliferation
Description: Cells were grown for 48 hours at 37°C and then incubated with 10 µl/well of WST-1 reagent (Roche Applied Science, France) for 3 hours at 37°C. The amount of formazan dye formed was quantified by its absorbance at 450 nm using a scanning multiwell spectrophotometer (MultiSkan MS, Thermo-LabSystems, France). A blank well without cells was used as a background control for the spectrophotometer and all assays were performed in triplicate.

CBMC = CBMC cell viability; format: cell-based, human; settings: incubation of CBMC for up to 9 hours
HMC-1α155 cells = assay: Mastocytoma cell line proliferation (WST-1), HMC-1α155; format: cell-based; settings: Homo sapiens, 48 h; 2 days; KIT juxtamembrane mutation
Description: (B) western blotting analysis of HMC-1α155 tyrosine phosphorylation. […] (D) Western blotting analysis of BMMC tyrosine phosphorylation. Cell proliferation was assessed by WST-1 colorimetric assay. […] MW = molecular weight.

Solubility = format: physicochemical
From the text: The chemical name is 4-(4-methylpiperazin-1-ylmethyl)-N-[4-methyl-3-(4-pyridin-3ylthiazol-2-ylamino) phenyl]benzamide-mesylate methane sulfonic acid salt, and the chemical formula is C28H30N6OS·CH4O3S (Figure 1A). […] Fresh dilutions of masitinib were made for each experiment. The imatinib used in this study was purchased from Sequoia Research (UK).

[1] = tested on: mastocytoma cell lines carrying KIT juxtamembrane mutants; assay: Proliferation of mastocytoma cell lines carrying KIT juxtamembrane mutants (summary); format: cell-based; settings: summary over cell lines
[2] = biological target: Epidermal growth factor receptor (Homo sapiens, UniProt P00533); assay: Recombinant kinase ELISA assay, EGFR; format: biochemical; set-up: The cDNA encoding the EGF receptor (664–1210); 6xHN (N); made in house; host or cells: baculovirus, Sf9 insect cells; settings: recombinant human enzyme; ELISA-based assay, poly(Glu,Tyr 4:1) substrate
Epidermal growth factor receptor, sequence (P00533 664-1210): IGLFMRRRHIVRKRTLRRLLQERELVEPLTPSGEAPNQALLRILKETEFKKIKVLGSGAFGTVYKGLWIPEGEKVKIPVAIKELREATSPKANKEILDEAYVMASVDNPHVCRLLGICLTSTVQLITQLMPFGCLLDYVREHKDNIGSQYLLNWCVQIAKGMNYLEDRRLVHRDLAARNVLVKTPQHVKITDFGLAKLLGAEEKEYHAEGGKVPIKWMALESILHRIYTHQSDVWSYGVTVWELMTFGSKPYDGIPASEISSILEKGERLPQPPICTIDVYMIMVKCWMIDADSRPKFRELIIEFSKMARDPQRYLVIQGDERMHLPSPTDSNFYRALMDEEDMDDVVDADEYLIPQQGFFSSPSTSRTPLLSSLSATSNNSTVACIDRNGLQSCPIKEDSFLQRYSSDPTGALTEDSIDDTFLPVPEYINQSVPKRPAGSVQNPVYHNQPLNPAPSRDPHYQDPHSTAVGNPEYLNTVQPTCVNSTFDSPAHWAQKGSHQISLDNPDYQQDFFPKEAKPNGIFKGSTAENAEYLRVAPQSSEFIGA
Description: as §1, §2

[3] = biological target: Fibroblast growth factor receptor 1 (Homo sapiens, UniProt P11362); assay: Recombinant kinase ELISA assay, FGFR1; format: biochemical; set-up: fibroblast growth factor receptor 1 (572–959; BC018128); 6xHN (N); made in house; host or cells: baculovirus, Sf9 insect cells; settings: recombinant human enzyme; ELISA-based assay, poly(Glu,Tyr 4:1) substrate
Fibroblast growth factor receptor 1, sequence (P11362 434-822 limits assumed): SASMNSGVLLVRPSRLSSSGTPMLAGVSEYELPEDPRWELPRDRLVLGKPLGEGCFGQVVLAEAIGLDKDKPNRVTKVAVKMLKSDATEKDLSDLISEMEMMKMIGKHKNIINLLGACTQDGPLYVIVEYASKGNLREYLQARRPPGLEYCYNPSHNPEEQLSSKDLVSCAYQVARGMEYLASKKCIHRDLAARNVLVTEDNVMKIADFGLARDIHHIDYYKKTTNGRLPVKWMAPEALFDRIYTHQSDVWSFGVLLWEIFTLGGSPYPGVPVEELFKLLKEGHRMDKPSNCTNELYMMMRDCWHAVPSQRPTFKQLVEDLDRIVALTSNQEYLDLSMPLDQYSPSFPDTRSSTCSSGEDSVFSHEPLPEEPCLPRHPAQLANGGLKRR
Description: as §1, §3

VEGFR2, sequence (P35968 20-1356): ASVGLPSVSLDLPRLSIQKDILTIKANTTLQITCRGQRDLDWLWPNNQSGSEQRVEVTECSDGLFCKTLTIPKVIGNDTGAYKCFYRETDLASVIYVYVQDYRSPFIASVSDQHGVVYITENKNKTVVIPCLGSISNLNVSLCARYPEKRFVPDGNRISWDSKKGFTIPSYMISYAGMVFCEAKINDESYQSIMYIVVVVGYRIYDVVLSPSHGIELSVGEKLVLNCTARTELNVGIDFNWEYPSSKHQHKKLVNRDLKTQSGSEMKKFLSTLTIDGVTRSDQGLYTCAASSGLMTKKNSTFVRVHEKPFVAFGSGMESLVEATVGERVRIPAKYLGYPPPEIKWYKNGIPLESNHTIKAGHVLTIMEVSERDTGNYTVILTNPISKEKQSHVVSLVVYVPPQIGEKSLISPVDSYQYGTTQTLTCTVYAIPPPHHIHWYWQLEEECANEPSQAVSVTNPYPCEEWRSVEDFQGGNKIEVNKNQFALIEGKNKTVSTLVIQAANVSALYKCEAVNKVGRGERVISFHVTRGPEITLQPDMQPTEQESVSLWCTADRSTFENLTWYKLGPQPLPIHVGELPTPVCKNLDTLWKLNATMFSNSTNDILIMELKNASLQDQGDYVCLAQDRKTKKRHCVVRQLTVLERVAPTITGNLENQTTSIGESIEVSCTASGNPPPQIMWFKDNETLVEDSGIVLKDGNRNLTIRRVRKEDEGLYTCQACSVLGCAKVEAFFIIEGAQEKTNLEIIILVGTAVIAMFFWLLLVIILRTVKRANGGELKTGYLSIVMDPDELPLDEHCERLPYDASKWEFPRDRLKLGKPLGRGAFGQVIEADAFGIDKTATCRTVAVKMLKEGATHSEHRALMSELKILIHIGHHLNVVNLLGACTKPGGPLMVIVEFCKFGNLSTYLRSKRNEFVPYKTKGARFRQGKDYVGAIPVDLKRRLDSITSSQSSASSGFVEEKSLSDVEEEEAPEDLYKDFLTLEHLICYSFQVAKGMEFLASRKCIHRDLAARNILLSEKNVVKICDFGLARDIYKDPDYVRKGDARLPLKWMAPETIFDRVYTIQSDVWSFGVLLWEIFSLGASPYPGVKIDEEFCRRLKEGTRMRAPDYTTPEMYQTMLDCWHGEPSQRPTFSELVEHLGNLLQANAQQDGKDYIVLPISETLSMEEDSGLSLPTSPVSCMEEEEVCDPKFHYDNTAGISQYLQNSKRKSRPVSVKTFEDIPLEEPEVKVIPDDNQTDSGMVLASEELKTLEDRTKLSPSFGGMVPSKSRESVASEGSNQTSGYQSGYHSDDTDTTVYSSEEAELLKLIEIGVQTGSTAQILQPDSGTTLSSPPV

In the case of CS(=O)(=O)O.CS(=O)(=O)O.Cc1ccc(NC(=O)c2ccc(CN3CCN(C)CC3)cc2)cc1Nc1nc(-c2cccnc2)cs1 [masitinib, 4-(4-methylpiperazin-1-ylmethyl)-N-[4-methyl-3-(4-pyridin-3ylthiazol-2-ylamino)phenyl]benzamide-mesylate methane sulfonic acid salt], the IC50 (VEGFR2) is reported as > 10 µM, the IC50 (Lyn B) is reported as 0.51 ± 0.13 µM and the IC50 (Src) is reported as 1.87 ± 0.31 µM. The IC50 (Fes) was > 10 µM, the IC50 (Jak3) was 10 ± 0.5 µM and the IC50 (Ba/F3 cells) was > 5 µM. For the same molecule, the “effect on cell viability” value (CBMC) was “no affect on cell viability”, the IC50 (HMC-1α155 cells) was ~0.01 µM and the solubility (Solubility; 0.1 M HCl) was “freely soluble”. The solubility (Solubility; 0.1 M NaOH) was “practically insoluble”, the solubility (Solubility; dimethylsulfoxide) was “freely soluble” and the solubility (Solubility; ethanol) was “slightly soluble”. The solubility (Solubility; n-hexane) was “practically insoluble”, the solubility (Solubility; propylene glycol) was “slightly soluble” and the solubility (Solubility; water) was “soluble”. For the same molecule, the IC50 [1] was 0.01 to 0.03 µM, the IC50 [2] was > 10 µM and the IC50 [3] was > 10 µM.
